Source: publication PMC10720709, “Design, synthesis, and evaluation of 4-(3-(3,5-dimethylisoxazol-4-yl)benzyl)phthalazin-1(2H)-one derivatives: potent BRD4 inhibitors with anti-breast cancer activity” (Frontiers in Pharmacology, 2023)

How the values were obtained:
BD1 domain of BRD4 = system: BD1 domain of BRD4; parameters: method as in Hewings et al., 2013; conditions: ref Hewings et al., 2013; read-out: IC50 against the BD1 domain of BRD4; cited from earlier work
[1] = biological target: T1, recombinant BRD4 (BD1 + BD2) (Homo sapiens, UniProt O60885); test: BRD4 TR-FRET activity assay; format: binding;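 also: signal rises with BET ligand binding to the bromodomains, so inhibitors lower it, 120 min incubation at room temperature, 1% DMSO, wells lacking ligand as negative control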
T1 construct: employing a recombinant BRD4 (BD1 + BD2) and its corresponding ligand
Description: The BRD4 activity assay utilized TR-FRET technology, employing a recombinant BRD4 (BD1 + BD2) and its corresponding ligand. The TR-FRET signal generated in the assay is proportional to the ligand’s binding to the bromodomains. All reactions contained a final DMSO concentration of 1%. All binding reactions were conducted at room temperature. Each 20 µL reaction mixture, in assay buffer, comprised bromodomains, the BET Ligand, and the specified inhibitor amount. For the negative control, 5 µL of assay buffer replaced the BET ligand. After a 120-min incubation with the ligand, the TR-FRET signal was captured using a Tecan Infinite M1000 plate reader. IC50 values were determined through nonlinear regression with a normalized dose-response fit in Prism GraphPad software.

PARP1 = PARP1 (Homo sapiens, UniProt P09874); test: PARP1 enzymatic activity ELISA; format: biochemical; conditions: ELISA
PARP1, sequence (P09874 whole entry): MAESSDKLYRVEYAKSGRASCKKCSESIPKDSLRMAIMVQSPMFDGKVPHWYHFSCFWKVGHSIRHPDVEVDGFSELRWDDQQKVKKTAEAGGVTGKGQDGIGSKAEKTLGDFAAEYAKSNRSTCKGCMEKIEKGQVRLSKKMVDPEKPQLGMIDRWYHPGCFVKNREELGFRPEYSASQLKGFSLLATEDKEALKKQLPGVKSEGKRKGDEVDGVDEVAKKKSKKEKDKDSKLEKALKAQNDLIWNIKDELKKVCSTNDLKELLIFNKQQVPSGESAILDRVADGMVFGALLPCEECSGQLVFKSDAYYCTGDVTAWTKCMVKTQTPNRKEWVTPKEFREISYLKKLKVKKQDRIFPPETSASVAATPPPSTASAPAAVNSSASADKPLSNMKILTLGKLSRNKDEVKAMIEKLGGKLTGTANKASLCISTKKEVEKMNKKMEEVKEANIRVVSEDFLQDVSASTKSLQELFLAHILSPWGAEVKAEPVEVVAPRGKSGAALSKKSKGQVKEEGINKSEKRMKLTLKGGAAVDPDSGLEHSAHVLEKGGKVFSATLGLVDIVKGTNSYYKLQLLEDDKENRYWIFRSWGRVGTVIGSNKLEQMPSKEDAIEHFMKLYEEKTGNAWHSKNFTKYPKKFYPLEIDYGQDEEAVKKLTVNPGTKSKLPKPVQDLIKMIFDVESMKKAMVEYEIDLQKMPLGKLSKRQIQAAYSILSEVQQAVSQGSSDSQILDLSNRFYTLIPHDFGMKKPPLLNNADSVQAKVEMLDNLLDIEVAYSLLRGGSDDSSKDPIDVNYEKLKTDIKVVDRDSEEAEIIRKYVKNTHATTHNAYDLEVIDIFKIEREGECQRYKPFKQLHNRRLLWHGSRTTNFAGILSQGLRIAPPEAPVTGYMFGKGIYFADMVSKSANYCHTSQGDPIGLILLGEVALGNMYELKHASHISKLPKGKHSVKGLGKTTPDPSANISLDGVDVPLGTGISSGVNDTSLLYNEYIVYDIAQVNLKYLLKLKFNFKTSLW
Description: The inhibition of PARP1 enzymatic activity by the tested compounds was gauged using an ELISA in 96-well plates. Each well was pre-coated with histone (20 μg/mL) in 100 μL of PBS buffer and incubated overnight at 4 °C. […] This was followed by the addition of 5 μL of either the compound at varying concentrations or a solvent control. The reaction was initiated by adding 20 μL of PARP (50 ng/well) and incubating at 30°C for 1 h. Post-reaction, 50 µL of streptavidin-conjugated HRP was introduced, and the assay continued at 30°C for an additional 30 min. Finally, 100 μL of a solution containing H2O2 and luminol in 0.1 M citrate buffer (pH 5.4) was added, and the luminescent signal was recorded using a Molecular Devices SpectraMax M5 microplate reader.

MDA-MB-231 cells = test: MTT cell viability assay, MDA-MB-231; format: cell-based; conditions: Homo sapiens; MDA-MB-231, MTT, 72 h; read-out: Cytotoxicity IC50
Description: (§1) MDA-MB-468, MDA-MB-231, and MCF-7 cell lines were sourced from the National Collection of Authenticated Cell Culture, China. Cells were maintained in DMEM medium supplemented with 10% FBS and 1% penicillin/streptomycin, and incubated at 37°C in a humidified atmosphere containing 5% CO2.
(§2) The viability of cells was assessed using the MTT assay. Cells were seeded at a density of 3×10^3 cells per well in a 96-well plate and treated with varying concentrations (0.05, 0.2, 0.8, 3.2, 6.4, 12.8 µM) of the compounds for 72 h. Post-incubation, 100 µL of MTT solution (0.5 mg/mL) was added to each well and further incubated for 4 h. The resulting formazan crystals were dissolved in 150 µL DMSO, and the absorbance was measured at 570 nm using a microplate reader.

MDA-MB-468 cells = test: MTT cell viability assay, MDA-MB-468; format: cell-based; conditions: Homo sapiens; MDA-MB-468, MTT, 72 h; read-out: Cytotoxicity IC50
Description: as §1, §2

MCF-7 cells [2] = test: MTT cell viability assay, MCF-7; format: cell-based; conditions: Homo sapiens, MCF7; MCF-7, MTT, 72 h; read-out: Cytotoxicity IC50
Description: as §1, §2

MCF-7 cells [3] = test: Cell cycle analysis (PI, flow cytometry); format: cell-based; conditions: for proportion of cells in G1 phase: 48 h; for effect on cell cycle (in words): MCF-7, 48 h
Description: The cell cycle distribution was assessed using the DNA Content Quantitation Assay Kit (Solarbio, China). […] After treatment, cells were harvested, fixed in ice-cold 70% ethanol overnight at 4°C, and subsequently washed with PBS. Cells were then treated with 100 μL RNase at 37°C for 30 min and stained with 400 μL PI for 30 min at 4°C in the dark. The cell cycle distribution was analyzed using an Accuri C6 Plus flow cytometer (BD Bioscience, CA), and data interpretation was performed with FlowJo software.

[4] = system: c-MYC expression in MCF-7 cells; test: Western blot of c-MYC; format: cell-based; conditions: MCF-7, 24 h
Description: (§3) Cells were then lysed using RIPA buffer supplemented with protease and phosphatase inhibitors. Protein concentrations were determined using the BCA Protein Assay Kit. Equal amounts of protein (20–30 µg) were separated by SDS-polyacrylamide gel electrophoresis and subsequently transferred to a polyvinylidene fluoride (PVDF) membrane. The membrane was blocked using 5% milk in PBS prior to incubation with primary antibodies. Primary antibodies against p-H2AX (Cell Signaling Technology™, US), c-MYC, and β-actin (Proteintech, US) were used. After overnight incubation at 4°C, membranes were washed and incubated with HRP-conjugated secondary antibodies for 1 h. Protein bands were visualized using ECL reagents.

γ-H2AX in MCF-7 cells = test: Western blot of γ-H2AX; format: cell-based; conditions: MCF-7, 24 h
Description: as §3

MCF-7 cells [5] = test: Clonogenic (colony formation) assay; format: cell-based; conditions: MCF-7, 0.3, 1, 3 μM, 8 days
Description: MCF-7 cells were seeded in 6-well plates at a density of 500 cells/well and allowed to grow for 8 days to facilitate colony formation. After incubation, cells were washed with PBS, fixed in methanol for 15 min, and stained with 1% crystal violet for an hour. Colonies were then imaged and counted.

MCF-7 cells [6] = test: Wound scratch cell migration assay; format: cell-based; conditions: MCF-7, wound scratch, 1 μM, 48 h
Description: MCF-7 cells were seeded in 6-well plates at a density of 5×10^5 cells/well and incubated overnight. A scratch was made in the cell monolayer using a 10 µL pipette tip. […] Images were captured at 0, 12, 24, and 48-h intervals.

MCF-7 cells [7] = test: Comet assay (DNA damage); format: cell-based; conditions: MCF-7, 24 h
Description: The comet assay was performed under alkaline conditions using the Comet Assay Kit (Beyotime, China) as per the manufacturer’s instructions. […] This mixture was spread onto microscope slides, which were then submerged in lysis solution for an hour. Electrophoresis was conducted in a horizontal apparatus at 25 V and 300 mA. Post-electrophoresis, slides were stained with PI for DNA visualization, and images were captured using a fluorescence inverted microscope.

| Compound | IC50 (BD1 domain of BRD4) | inhibition at 1 µM ([1]; 1 μmol/L, read-out: BRD4 inhibition rate) | IC50 ([1]; TR-FRET, BRD4 (BD1 + BD2)) | IC50 (PARP1) | IC50 (MDA-MB-231 cells) | IC50 (MDA-MB-468 cells) | IC50 (MCF-7 cells [2]) | proportion of cells in G1 phase (MCF-7 cells [3]; MCF-7, 0.3 μM) | proportion of cells in G1 phase (MCF-7 cells [3]; MCF-7, 1 μM) | proportion of cells in G1 phase (MCF-7 cells [3]; MCF-7, 3 μM) | effect on cell cycle (in words) (MCF-7 cells [3]) | expression of c-MYC (Western blot) [4] | γ-H2AX level (Western blot) (γ-H2AX in MCF-7 cells) | colony formation (in words) (MCF-7 cells [5]) | inhibition of cell migration (in words) (MCF-7 cells [6]) | DNA damage (comet assay, in words) (MCF-7 cells [7]) |
| --- | --- | --- | --- | --- | --- | --- | --- | --- | --- | --- | --- | --- | --- | --- | --- | --- |
| Cc1noc(C)c1-c1cc(O)cc(C(=O)c2ccccc2)c1 [Compound 7] | 0.544 µM | – | – | – | – | – | – | – | – | – | – | – | – | – | – | – |
| Cc1noc(C)c1-c1cc(Cc2n[nH]c(=O)c3ccccc23)cc(NC(=O)c2ccccc2C(F)(F)F)c1 [DDT26] | – | 85% | 0.237 ± 0.093 µM | 4.29 ± 1.81 µM | 7.55 µM | 3.96 µM | 4.9 µM | 53.8% | 59.8% | 64.5% | dose-dependent G1 phase cell cycle arrest | downregulate the expression of c-MYC in MCF-7 cells in a concentration-dependent manner | induced the accumulation of γ-H2AX in MCF-7 cells in a concentration-dependent fashion | inhibited colony formation in MCF-7 cells in a dose-dependent manner | slightly less pronounced | induced DNA damage in MCF-7 cells in a dose-dependent manner |
| O=C(c1cc(Cc2n[nH]c(=O)c3ccccc23)ccc1F)N1CCN(C(=O)C2CC2)CC1 [Olaparib, reference compound] | – | – | – | – | 8.17 µM | 8.09 µM | 8.7 µM | – | – | – | did not influence the MCF-7 cell cycle | – | – | – | no inhibitory activity | – |
